According to patent US20140073691A1, “Methods and composition for Treating Thyroid Hormone Related Disorders” (Zafgen, Inc., priority 2010, published 2014):

System: plasma thyroid stimulating hormone (TSH)
Assay: Administration of MetAP-2 inhibitor to obese subjects: plasma TSH and circulating thyroid hormones
Format: in vivo, human (obese subjects)
Protocol: FIG. 1 depicts the results of administration of a MetAP2 inhibitor to obese patients and indicates the reduction in plasma thyroid stimulating hormone, without reductions in circulating thyroid hormone (free T3 and T4) concentrations.
8 obese subjects who were not taking any thyroid medication were treated with O-(4-dimethylaminoethoxycinnamoyl)fumagillol at a dose of 0.9 mg per square meter of body surface area (approximately 1.8 mg per dose) for 26 days. […] (FIG. 1). This is indicative of improved thyroid hormone sensitivity and a reduction in thyroid hormone resistance.

## CO[C@@H]1[C@H](OC(=O)C=Cc2ccc(OCCN(C)C)cc2)CC[C@]2(CO2)[C@H]1[C@@]1(C)O[C@@H]1CC=C(C)C [O-(4-dimethylaminoethoxycinnamoyl)fumagillol]
8 obese subjects not taking thyroid medication, 0.9 mg per square meter of body surface area (approximately 1.8 mg per dose) for 26 days
  plasma thyroid stimulating hormone (TSH): significant reduction
8 obese subjects, 0.9 mg per square meter of body surface area for 26 days, T4 (FIG. 1)
  circulating thyroid hormone T4: without a reduction
8 obese subjects, 0.9 mg per square meter of body surface area for 26 days, free T3 (FIG. 1)
  circulating thyroid hormone T3: without a reduction
